Results from the supplement of paper PMC6335503.
± gives the standard deviation of the averaged measurements.

Key:
Assay in all cases: cell viability, percent of DMSO control (CellTiter-Glo); higher = more viable cells
Conditions in all cases: 72 h
[1] = tested on: DFTD cell line T1 (06/2887)
Experimental: (§1)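 Eight-point dose titration of 41 screen hits in triplicate wells on four Tasmanian devil DFTD tumour cell lines (T1-T4) and devil fibroblasts, 384-well plates. Viability was read by CellTiter-Glo (ATP) after 72 h at 37 °C. Percent of control per plate: DMSO wells = 100%, positive-control wells = 0%.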

[2] = tested on: DFTD cell line T4 (07/0192)
Experimental: as §1

[3] = tested on: DFTD cell line T2 (05/2569)
Experimental: as §1

[4] = tested on: DFTD cell line T3 (06/0368)
Experimental: as §1

COc1cc2c(cc1-c1c(C)noc1C)ncc1[nH]c(=O)n([C@H](C)c3ccccn3)c12 [I-BET151]
cell viability [%]
Conditions | 0.0309 µM | 0.0926 µM | 0.277778 µM | 0.833333 µM | 2.5 µM | 7.5 µM | 22.5 µM | 67.5 µM
[1] | 119 ± 13 | 126 ± 40 | 92.8 ± 26 | 31.3 ± 3.5 | 28.6 ± 10 | 16.7 ± 4.4 | 23 ± 2.7 | 37.9 ± 18
[2] | 87.7 ± 28 | 107 ± 30 | 87.5 ± 21 | 47.8 ± 2.6 | 49.6 ± 3.5 | 38.9 ± 4.8 | 42.9 ± 4.3 | 53 ± 11
[3] | 95.3 ± 11 | 120 ± 21 | 141 ± 48 | 81.4 ± 24 | 50.3 ± 17 | 21.1 ± 11 | 22.3 ± 12 | 32.5 ± 18
[4] | 102 ± 16 | 106 ± 14 | 117 ± 38 | 64.5 ± 7.8 | 47.6 ± 12 | 35.1 ± 16 | 36.6 ± 12 | 45.2 ± 18

Cc1cc(Nc2ncnc3ccc(NC4=NC(C)(C)CO4)cc23)ccc1Oc1ccn2ncnc2c1 [Irbinitinib(ARRY-380; ONT-380)]
cell viability [%]
Conditions | 0.00617 µM | 0.0185 µM | 0.0556 µM | 0.166667 µM | 0.5 µM | 1.5 µM | 4.5 µM | 13.5 µM
[1] | 113 ± 14 | 111 ± 4.5 | 94.9 ± 27 | 89.7 ± 20 | 41.5 ± 14 | 30.3 ± 8.6 | 33 ± 14 | 33.4 ± 1.7
[2] | 106 ± 7.2 | 109 ± 16 | 105 ± 17 | 92.6 ± 7.2 | 60.1 ± 7 | 46.2 ± 3.3 | 43.5 ± 9.6 | 36.6 ± 9.5
[3] | 102 ± 24 | 90.6 ± 12 | 98.1 ± 10 | 95.7 ± 9.6 | 65.7 ± 19 | 45.7 ± 14 | 50.6 ± 22 | 42.5 ± 2.8
[4] | 112 ± 5.4 | 116 ± 13 | 111 ± 14 | 98.9 ± 19 | 67.1 ± 12 | 54.9 ± 8.6 | 45.3 ± 7.3 | 48.6 ± 9.9

CS(=O)(=O)CCNCc1ccc(-c2ccc3ncnc(Nc4ccc(OCc5cccc(F)c5)c(Cl)c4)c3c2)o1.Cc1ccc(S(=O)(=O)O)cc1.Cc1ccc(S(=O)(=O)O)cc1.O [Lapatinib ditosylate monohydrate]
cell viability [%]
Conditions | 0.00617 µM | 0.0185 µM | 0.0556 µM | 0.166667 µM | 0.5 µM | 1.5 µM | 4.5 µM | 13.5 µM
[1] | 107 ± 39 | 96.9 ± 20 | 92.2 ± 12 | 59.3 ± 6.9 | 38.8 ± 14 | 27.7 ± 9.2 | 31.9 ± 9.8 | 17.9 ± 3.7
[2] | 98.9 ± 6.5 | 94 ± 37 | 94.6 ± 12 | 68.7 ± 6.8 | 60.1 ± 8.2 | 29.7 ± 3.2 | 38.5 ± 8.5 | 24.5 ± 5.5
[3] | 100 ± 26 | 88.5 ± 31 | 87.2 ± 27 | 74.9 ± 4.3 | 58.2 ± 13 | 41.5 ± 5 | 40.8 ± 9.6 | 24.9 ± 5.9
[4] | 104 ± 10 | 94.6 ± 39 | 92.3 ± 27 | 85.4 ± 8.8 | 69.8 ± 7.8 | 38.4 ± 1.4 | 48.1 ± 12 | 34 ± 7

CS(=O)(=O)CCNCc1ccc(-c2ccc3ncnc(Nc4ccc(OCc5cccc(F)c5)c(Cl)c4)c3c2)o1 [Lapatinib]
cell viability [%]
Conditions | 0.0123 µM | 0.037 µM | 0.111111111 µM | 0.333333 µM | 1 µM | 3 µM | 9 µM | 27 µM
[1] | 87.5 ± 17 | 112 ± 21 | 87.1 ± 1.2 | 42.6 ± 14 | 30.1 ± 5.2 | 28.2 ± 2.1 | 21.2 ± 1.1 | 12.5 ± 5.8
[2] | 81.5 ± 25 | 113 ± 8 | 84.5 ± 7.8 | 53 ± 10 | 32 ± 3.1 | 29.4 ± 3.1 | 20.7 ± 5.6 | 16.9 ± 3.8
[3] | 78.4 ± 19 | 133 ± 22 | 100 ± 7.6 | 68.6 ± 23 | 40.4 ± 10 | 44.6 ± 15 | 21.6 ± 5.3 | 8.25 ± 6.6
[4] | 80.9 ± 14 | 110 ± 29 | 84.9 ± 6.1 | 70.4 ± 15 | 42.1 ± 4.5 | 44.9 ± 16 | 31.7 ± 6.5 | 5.72 ± 6.8

C=CC(=O)Nc1cc(Nc2ncc(Cl)c(-c3c[nH]c4ccccc34)n2)c(OC)cc1N(C)CCN(C)C [Mutant EGFR inhibitor]
cell viability [%]
Conditions | 0.00617 µM | 0.0185 µM | 0.0556 µM | 0.166667 µM | 0.5 µM | 1.5 µM | 4.5 µM | 13.5 µM
[1] | 94.7 ± 15 | 83.8 ± 16 | 62.6 ± 41 | 29.1 ± 1.2 | 26.6 ± 1.8 | 9.39 ± 10 | 1.63 ± 5.5 | 7.99 ± 6.1
[2] | 75.6 ± 22 | 86.8 ± 26 | 89 ± 42 | 35.9 ± 5.8 | 20.9 ± 7 | 6.23 ± 8.1 | 3.77 ± 2.2 | 19.9 ± 7.9
[3] | 98.2 ± 20 | 93.9 ± 23 | 94.8 ± 32 | 50.8 ± 10 | 37.3 ± 3.5 | 16.6 ± 10 | 5.63 ± 3.1 | 11.5 ± 1.4
[4] | 87 ± 18 | 93 ± 18 | 86.5 ± 38 | 39.6 ± 1.6 | 38.2 ± 4.8 | 22 ± 11 | 12.8 ± 3.7 | 26.6 ± 4.2

CCOc1cc2ncc(C#N)c(Nc3ccc(OCc4ccccn4)c(Cl)c3)c2cc1NC(=O)/C=C/CN(C)C [Neratinib(HKI-272)]
cell viability [%]
Conditions | 0.00617 µM | 0.0185 µM | 0.0556 µM | 0.166667 µM | 0.5 µM | 1.5 µM | 4.5 µM | 13.5 µM
[1] | 97.8 ± 37 | 92.2 ± 15 | 125 ± 37 | 90.5 ± 7.4 | 50.7 ± 4.2 | 29 ± 6.5 | 29.2 ± 19 | 32.5 ± 3.8
[2] | 99.8 ± 14 | 88.3 ± 15 | 114 ± 43 | 93.5 ± 4.8 | 62.4 ± 16 | 22.9 ± 15 | 25.4 ± 14 | 18.8 ± 7.4
[3] | 97 ± 27 | 98 ± 17 | 154 ± 70 | 119 ± 36 | 93.3 ± 38 | 45.2 ± 9.8 | 45.7 ± 18 | 39.1 ± 7.5
[4] | 92 ± 15 | 102 ± 7.7 | 119 ± 39 | 96.1 ± 19 | 92.2 ± 2.9 | 39.8 ± 9.7 | 42.4 ± 10 | 36.5 ± 2.4

Cc1sc2c(c1C)C(c1ccc(Cl)cc1)=N[C@@H](CC(=O)Nc1ccc(O)cc1)c1nnc(C)n1-2 [OTX015]
cell viability [%]
Conditions | 0.0123 µM | 0.037 µM | 0.111111111 µM | 0.333333 µM | 1 µM | 3 µM | 9 µM | 27 µM
[1] | 103 ± 4.3 | 100 ± 16 | 74.2 ± 19 | 59.1 ± 11 | 31.2 ± 9.6 | 36 ± 6.8 | 30.2 ± 7.3 | 36.9 ± 20
[2] | 93.3 ± 12 | 85.1 ± 7.2 | 69.9 ± 18 | 72.7 ± 10 | 51.1 ± 6.5 | 55.9 ± 14 | 47.1 ± 9.2 | 56.2 ± 21
[3] | 105 ± 52 | 128 ± 33 | 97.9 ± 28 | 104 ± 18 | 70.1 ± 17 | 44.1 ± 14 | 36.1 ± 10 | 45.3 ± 14
[4] | 104 ± 32 | 120 ± 14 | 84.2 ± 13 | 79.8 ± 16 | 57.3 ± 15 | 50.5 ± 11 | 46.8 ± 10 | 54.8 ± 21

CCOc1cc2ncc(C#N)c(Nc3ccc(F)c(Cl)c3)c2cc1NC(=O)/C=C/CN(C)C [Pelitinib (EKB-569)]
cell viability [%]
Conditions | 0.00617 µM | 0.0185 µM | 0.0556 µM | 0.166667 µM | 0.5 µM | 1.5 µM | 4.5 µM | 13.5 µM
[1] | 82.1 ± 19 | 115 ± 7.8 | 93.5 ± 12 | 76.8 ± 19 | 22 ± 2 | 30.3 ± 9 | 34.1 ± 9.4 | -2.36 ± 7.5
[2] | 83 ± 12 | 113 ± 5.8 | 97.4 ± 3.2 | 77.8 ± 16 | 53.1 ± 7.7 | 18.3 ± 4.2 | 19.6 ± 4.7 | 22.1 ± 4.4
[3] | 79.7 ± 17 | 121 ± 36 | 111 ± 14 | 98.2 ± 37 | 42.1 ± 13 | 42.4 ± 14 | 33.2 ± 10 | 8.16 ± 16
[4] | 81.3 ± 13 | 125 ± 19 | 103 ± 9.2 | 76.4 ± 17 | 58.9 ± 7.4 | 39.5 ± 7 | 33.4 ± 5.2 | 36.2 ± 5.1
